In PMC9032987, “Cytotoxic Alkylynols of the Sponge Cribrochalina vasculum: Structure, Synthetic Analogs and SAR Studies” (Marine Drugs, 2022):

Experiments:
Format in all cases: cell-based, human
NSCLC U-1810 cells = assay: MTT cytotoxicity assay in NSCLC U-1810 cells; conditions: for IC50: MTT, 72 h post addition, estimated from cell viability curve; for viability at 162 µM: U-1810, at 162 µM
Description: (§1) Cytotoxicity structure-activity relationship analyses of compounds in NSCLC tumor cells and fibroblasts. Stock solutions (10 mg/mL) of the compounds to be tested were made in DMSO and further diluted with cell culture media prior to structure-activity relationship (SAR) screening as earlier described. To assess anti-tumor activity, the large cell lung carcinoma cell line NSCLC U-1810 (kind gift from Uppsala University) and diploid lung fibroblasts WI-38 [30] were used. U-1810 cells were propagated in RPMI-1640 medium (Sigma-Aldrich, St. Louis, […], USA) supplemented with FBS (10% HyClone) and L-glutamine (2 mmol/L, Invitrogen) while WI-38 fibroblasts were cultured in Eagle’s Minimum Essential Medium (Sigma-Aldrich) with 15% FBS and L-glutamine. For SAR assessment the cytotoxic assay 3-(4,5-dimethylthiazol-2-yl)-2,5 diphenyltetrazolium bromide (MTT) was applied. Profiling of U-1810 cells was carried out at 80% confluency (obtained by seeding 5000 cells/well in a 96-well plate for 24 h prior to treatment) and of WI-38 at 100% confluency (obtained by seeding 18,000 cells/well in a 96-well plate for 24 h prior to compound addition), the later to mimic the behavior of fibroblasts in the human body where they are non-dividing. For SAR evaluation, different concentrations of the compounds were added to fresh media while untreated cells were treated with DMSO corresponding to the amount applied when testing the highest concentration of the different compounds. The cytotoxicity of the compounds was assessed at 72 h post addition to cells by adding MTT solution (0.5 mg/mL, Sigma-Aldrich, 4 h at 37 °C) and dissolving the resulting formazan crystals in an SDS-containing solution (10% SDS and 0.01 mol/L HCl). Absorbance was quantified at 595 nm and the compound-induced cytotoxicity was calculated relative to that observed in DMSO-treated cells. The IC50 values were deduced from survival plots drawn in Graph Pad PRISM software vers.6 and for some of the compounds extrapolated as indicated in footnotes to Table 1.

[1] = system: WI-38 diploid lung fibroblasts; assay: MTT cytotoxicity assay in diploid lung fibroblasts WI-38; conditions: for IC50: MTT, 72 h post addition, confluent cells, estimated from cell viability curve
Description: as §1

[2] = as above; conditions: human, WI-38 diploid lung fibroblasts, 72 h, read-out: cell viability
Description: as §1

[3] = calculated at IC50 (WI-38 IC50 / U-1810 IC50)
[4] = Homo sapiens, 72 h, read-out: cell viability

Compound | Selectivity NSCLC cells (U-1810) vs. diploid fibroblasts (WI-38) (NSCLC U-1810 cells; [3]) | cytotoxic activity in NSCLC U-1810 cells (in words) (NSCLC U-1810 cells) | IC50 (NSCLC U-1810 cells; Homo sapiens, U-1810, 72 h) | IC50 ([1]; Homo sapiens, WI-38, 72 h) | further results
C#C[C@H](O)/C=C/CCCCCCCCCCCCCCC [Compound R-18, (R,E)-icos-4-en-1-yn-3-ol] | 3.8 |  |  |  | IC50 (NSCLC U-1810 cells): 0.9 µM; IC50 [1]: 3.4 µM
C#C[C@H](O)/C=C/CCCCCCCCCCCCCCCC [Compound 20, (3R)-Henicos-(4E)-en-1-yn-3-ol] | 10 | equally active | 1.4 µM | 14 µM | 
C#CC(O)CCCCCCCCCCCCCCC (racemic) [rac-32, Octadec-1-yn-3-ol] | 25 |  | 3 µM | 75 µM | 
C#CC(O)CCCCCCCCCCCCCCCCC (racemic) [rac-33, Icos-1-yn-3-ol] |  |  | 2.8 µM | > 170 µM | viability at 72 h, 170 µM ([2]; WI-38, at 170 µM): ~100%
C#C[C@H](O)/C=C/CCCCCCCCCCCCCC(C)C [Compound 19, (3R)-19-Methylicos-(4E)-en-1-yn-3-ol] | 6.5 | equally active | 2 µM | 13 µM | 
C#CC(C)(O)CCCCCCCCCCCCCCCC (racemic) [rac-41, 3-Methylnonadec-1-yn-3-ol] |  |  | > 162 µM |  | viability at 162 µM (NSCLC U-1810 cells; [4]): ~54%
C#CC(=O)/C=C/CCCCCCCCC/C=C\CCCCCC [Compound 10, Docos-(4E,15Z)-dien-1-yn-3-one] | ~0.4 | not active | ~80 µM | 30 µM | 
C#CC(O)/C=C/CCCCCCCCCCCCCCC (racemic) [rac-18, rac-Icos-(4E)-en-1-yn-3-ol] | 6.9 |  | 1.2 µM | 8.3 µM | 
C#CC(N)CCCCCCCCCCCCCCC (racemic) [rac-37, Octadec-1-yn-3-amine] | 1.2 |  | 29 µM | 34 µM | 
C#CC(O)c1ccccc1 (racemic) [rac-49, 1-Phenylprop-2-yn-1-ol] |  | did not display any anti-tumor effect | > 379 µM |  | viability at 379 µM (NSCLC U-1810 cells; Homo sapiens, U-1810, at 379 µM, 72 h, read-out: cell viability): ~80%
C#C[C@@H](O)/C=C/CCCCCCCCCCCCCCC [scal-S-18, (S)-icos-(4E)-en-1-yn-3-ol] | 8.5 |  | 1 µM | 8.5 µM | 
C#CC(O)c1cccc(CCCCCCCCCCCCCC)c1 (racemic) [rac-45, 1-(3-tetradecylphenyl)prop-2-yn-1-ol] |  |  | ~152 µM |  | viability at 76 µM (NSCLC U-1810 cells; Homo sapiens, U-1810, at 76 µM, one experiment, read-out: cell viability): ~70%
C#CC(O)/C=C/C=C/CCCCCCCCCCCCCCC (racemic) [rac-27, (4E,6E)-docosa-4,6-dien-1-yn-3-ol] |  |  | ~2.4 µM | 70 µM | cytotoxicity to WI-38 fibroblasts (in words) [1]: did not affect the viability
C#C[C@H](O)/C=C/CCCCCCCCCCCCCCC [scal-R-18, (R,E)-icos-4-en-1-yn-3-ol] | 6.8 |  | 1 µM | 6.8 µM | 
C#C[C@H](O)CCCCCCCCCCC(C)CCCCCC (stereo partly drawn) [Compound 7, (3R)-14-Methylicos-1-yn-3-ol] |  | equally active | 3 µM | > 163 µM | tumor selective cytotoxicity NSCLC vs WI-38 (in words) (NSCLC U-1810 cells): clear tumor selective activity
C#C[C@@H](CCCCCCCCCCCCCCC)OC(=O)[C@](OC)(c1ccccc1)C(F)(F)F [R,R-34, (R)-((R)-octadec-1-yn-3-yl)-3,3,3-trifluoro-2-methoxy-2-phenylpropanoate] |  |  | > 113 µM | > 113 µM | viability at 113 µM (NSCLC U-1810 cells; Homo sapiens, U-1810, at 113 µM, 72 h, read-out: cell viability): ~100%; viability at 72 h, 113 µM ([2]; WI-38, at 113 µM): ~100%
C#C[C@H](O)/C=C/CCCCCCCCCCCCC(C)C [Compound 1, (3R)-18-Methylnonadec-(4E)-en-1-yn-3-ol] | 12 | equally active | 1 µM | 12 µM | tumor selective cytotoxicity NSCLC vs WI-38 (in words) (NSCLC U-1810 cells): selectivity at lower doses
C#CC(CCCCCCCCCCCCCCC)OS(=O)(=O)c1ccc(C)cc1 (racemic) [rac-35, Octadec-1-yn-3-yl 4-methylbenzenesulfonate] |  |  | 23 µM | > 119 µM | Selectivity NSCLC cells (U-1810) vs. diploid fibroblasts (WI-38) (NSCLC U-1810 cells; calculated at IC50 of U-1810 and the highest dose applied in WI-38 (IC50 not reached)): >5.2 ^s; viability at 72 h, 119 µM ([2]; WI-38, at 119 µM): ~85%
C#CC(S)CCCCCCCCCCCCCCC (racemic) [rac-40, Octadec-1-yne-3-thiol] |  |  | > 177 µM | > 177 µM | tumor selective cytotoxicity NSCLC vs WI-38 (in words) (NSCLC U-1810 cells): did not display any specific cytotoxicity; viability at 177 µM (NSCLC U-1810 cells; Homo sapiens, U-1810, at 177 µM, 72 h, read-out: cell viability): ~100%; viability at 72 h, 177 µM ([2]; WI-38, at 177 µM): ~100%
C#CC(CCCCCCCCCCCCCCC)SC(C)=O (racemic) [rac-39, S-Octadec-1-yn-3-yl ethanethioate] |  |  | 60 µM | > 154 µM | tumor selective cytotoxicity NSCLC vs WI-38 (in words) (NSCLC U-1810 cells): did not display any specific cytotoxicity; viability at 72 h, 154 µM ([2]; WI-38, at 154 µM): ~85%
C#CC(CCCCCCCCCCCCCCC)OC (racemic) [rac-38, 3-Methoxyoctadec-1-yne] |  |  | > 179 µM | > 179 µM | tumor selective cytotoxicity NSCLC vs WI-38 (in words) (NSCLC U-1810 cells): did not display any specific cytotoxicity; viability at 179 µM (NSCLC U-1810 cells; Homo sapiens, U-1810, at 179 µM, 72 h, read-out: cell viability): ~71%; viability at 72 h, 179 µM ([2]; WI-38, at 179 µM): ~77%
C#CC(O)c1ccccc1CCCCCCCCCCCCCC (racemic) [rac-48, 1-(2-tetradecylphenyl)prop-2-yn-1-ol] |  |  | ~50 µM |  | 
C#C[C@H](O)/C=C/CCCCCCCCC/C=C\CCCCC(C)C [Compound 22, (3R)-21-Methyldocos-(4E,15Z)-dien-1-yn-3-ol] | 10.8 | equally active | 1.2 µM | 13 µM | 
CC#CC(O)CCCCCCCCCCCCCCCCC (racemic) [rac-42, Henicos-2-yn-4-ol] |  |  | > 162 µM |  | viability at 162 µM (NSCLC U-1810 cells; [4]): ~90%
C#CC(O)C=CCCCCCCCC1CC1CCCCCC (centres unmarked) [Compound 8] | 10 | equally active | 1 µM | 10 µM | tumor selective cytotoxicity NSCLC vs WI-38 (in words) (NSCLC U-1810 cells): selectivity at lower doses
C#CC(O)CCCCCCCCC (racemic) [rac-31, Dodec-1-yn-3-ol] |  | much lower toxicity | 15 µM |  | 
C#CC(=O)/C=C/CCCCCCCCC(C)CCCCCC (centres unmarked) [Compound 6, 14-Methylicos-(4E)-en-1-yn-3-one] | 1.1 | not active | 65 µM | 73 µM | 
